Assay results as given in publication PMC9841288 (Journal of Translational Autoimmunity, 2022).

Assays:
[1] = biological target: CLK2 (Homo sapiens, UniProt P49760); assay: KINOMEscan competition binding, single dose […]
[2] = biological target: DYRK1B (Homo sapiens, UniProt Q9Y463); assay: KINOMEscan competition binding, single dose […]
[3] = biological target: ALK(C1156Y) (Homo sapiens, UniProt Q9UM73, C1156Y); assay: KINOMEscan competition binding, single dose […]
[4] = biological target: DYRK1A (Homo sapiens, UniProt Q13627); assay: radiometric HotSpot kinase assay, […] ATP; type: biochemical
[5] = biological target: ALK (Homo sapiens, UniProt Q9UM73); assay: KINOMEscan competition binding, single dose […]
[6] = biological target: CLK1 (Homo sapiens, UniProt P49759); assay: KINOMEscan competition binding, single dose […]
[7] = biological target: MYLK (Homo sapiens, UniProt Q15746); assay: KINOMEscan competition binding, single dose […]

Sequence of ALK (Q9UM73 19-1620): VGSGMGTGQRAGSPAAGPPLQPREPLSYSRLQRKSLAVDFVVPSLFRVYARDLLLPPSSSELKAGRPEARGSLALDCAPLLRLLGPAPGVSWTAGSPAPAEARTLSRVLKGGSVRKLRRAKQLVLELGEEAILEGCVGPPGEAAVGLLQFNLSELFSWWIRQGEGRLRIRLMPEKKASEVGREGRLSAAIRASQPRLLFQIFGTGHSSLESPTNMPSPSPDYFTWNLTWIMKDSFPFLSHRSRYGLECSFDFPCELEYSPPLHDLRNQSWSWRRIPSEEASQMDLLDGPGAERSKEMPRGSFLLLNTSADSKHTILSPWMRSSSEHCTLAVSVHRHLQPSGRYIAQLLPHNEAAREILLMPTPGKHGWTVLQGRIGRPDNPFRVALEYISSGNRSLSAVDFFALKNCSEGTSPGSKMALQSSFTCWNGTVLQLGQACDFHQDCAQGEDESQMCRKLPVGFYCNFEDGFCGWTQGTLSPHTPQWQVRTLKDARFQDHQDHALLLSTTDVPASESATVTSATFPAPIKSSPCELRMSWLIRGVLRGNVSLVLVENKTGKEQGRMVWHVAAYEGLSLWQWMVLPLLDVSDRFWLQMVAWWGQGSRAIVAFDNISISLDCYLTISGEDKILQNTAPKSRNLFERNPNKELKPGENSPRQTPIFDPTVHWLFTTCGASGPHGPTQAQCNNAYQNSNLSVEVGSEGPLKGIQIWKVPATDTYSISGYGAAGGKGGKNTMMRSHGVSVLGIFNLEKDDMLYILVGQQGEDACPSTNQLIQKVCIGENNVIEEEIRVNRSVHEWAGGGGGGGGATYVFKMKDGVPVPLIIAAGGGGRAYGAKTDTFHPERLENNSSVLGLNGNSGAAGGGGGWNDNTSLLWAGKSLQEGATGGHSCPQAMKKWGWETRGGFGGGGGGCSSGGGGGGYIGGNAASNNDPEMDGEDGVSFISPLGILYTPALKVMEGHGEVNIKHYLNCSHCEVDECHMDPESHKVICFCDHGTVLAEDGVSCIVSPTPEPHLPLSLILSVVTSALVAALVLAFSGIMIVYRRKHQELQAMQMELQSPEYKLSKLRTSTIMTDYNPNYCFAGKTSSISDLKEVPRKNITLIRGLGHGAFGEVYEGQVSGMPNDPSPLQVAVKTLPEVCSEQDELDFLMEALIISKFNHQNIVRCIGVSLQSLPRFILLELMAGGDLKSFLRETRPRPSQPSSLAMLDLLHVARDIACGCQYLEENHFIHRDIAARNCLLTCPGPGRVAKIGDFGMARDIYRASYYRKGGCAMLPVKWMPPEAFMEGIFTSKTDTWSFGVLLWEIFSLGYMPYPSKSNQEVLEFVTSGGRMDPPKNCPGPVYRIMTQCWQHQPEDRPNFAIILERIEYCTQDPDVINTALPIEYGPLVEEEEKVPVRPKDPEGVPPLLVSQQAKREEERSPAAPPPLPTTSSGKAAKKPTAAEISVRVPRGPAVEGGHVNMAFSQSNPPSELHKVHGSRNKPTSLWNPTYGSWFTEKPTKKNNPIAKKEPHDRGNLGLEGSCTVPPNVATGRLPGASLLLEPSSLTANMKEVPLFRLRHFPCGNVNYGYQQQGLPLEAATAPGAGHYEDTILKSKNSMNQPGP
Sequence of CLK2 (P49760 whole entry): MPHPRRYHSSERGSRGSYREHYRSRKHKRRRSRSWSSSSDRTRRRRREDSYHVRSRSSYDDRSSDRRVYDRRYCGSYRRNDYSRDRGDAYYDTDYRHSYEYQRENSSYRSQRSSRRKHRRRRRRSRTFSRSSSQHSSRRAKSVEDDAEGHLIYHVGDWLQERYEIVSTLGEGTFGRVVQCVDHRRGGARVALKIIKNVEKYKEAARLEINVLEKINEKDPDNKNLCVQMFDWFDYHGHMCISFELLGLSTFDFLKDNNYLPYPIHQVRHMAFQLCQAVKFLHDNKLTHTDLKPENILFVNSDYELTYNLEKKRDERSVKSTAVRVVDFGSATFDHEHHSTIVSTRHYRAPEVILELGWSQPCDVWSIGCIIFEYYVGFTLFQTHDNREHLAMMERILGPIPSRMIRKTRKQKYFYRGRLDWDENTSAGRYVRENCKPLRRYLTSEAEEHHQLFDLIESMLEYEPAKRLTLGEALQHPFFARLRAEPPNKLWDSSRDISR
Sequence of DYRK1B (Q9Y463 whole entry): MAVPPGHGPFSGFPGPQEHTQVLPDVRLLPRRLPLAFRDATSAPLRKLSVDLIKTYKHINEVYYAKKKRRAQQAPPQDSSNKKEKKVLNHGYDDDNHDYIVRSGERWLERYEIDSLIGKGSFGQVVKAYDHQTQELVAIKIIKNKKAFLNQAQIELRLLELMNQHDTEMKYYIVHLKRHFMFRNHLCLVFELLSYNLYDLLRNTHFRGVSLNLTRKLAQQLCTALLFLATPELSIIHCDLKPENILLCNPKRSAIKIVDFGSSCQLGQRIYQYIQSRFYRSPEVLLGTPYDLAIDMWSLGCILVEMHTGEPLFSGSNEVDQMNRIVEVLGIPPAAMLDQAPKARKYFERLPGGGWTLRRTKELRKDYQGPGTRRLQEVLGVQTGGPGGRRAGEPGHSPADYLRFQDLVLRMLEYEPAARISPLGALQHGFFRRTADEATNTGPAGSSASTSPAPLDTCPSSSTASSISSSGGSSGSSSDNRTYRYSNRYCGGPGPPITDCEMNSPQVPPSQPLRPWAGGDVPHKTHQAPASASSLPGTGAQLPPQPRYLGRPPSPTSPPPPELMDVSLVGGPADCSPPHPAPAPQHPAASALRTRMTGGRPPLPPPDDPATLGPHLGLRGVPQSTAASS
Sequence of ALK(C1156Y) (Q9UM73 1093-1411 C1156Y limits assumed): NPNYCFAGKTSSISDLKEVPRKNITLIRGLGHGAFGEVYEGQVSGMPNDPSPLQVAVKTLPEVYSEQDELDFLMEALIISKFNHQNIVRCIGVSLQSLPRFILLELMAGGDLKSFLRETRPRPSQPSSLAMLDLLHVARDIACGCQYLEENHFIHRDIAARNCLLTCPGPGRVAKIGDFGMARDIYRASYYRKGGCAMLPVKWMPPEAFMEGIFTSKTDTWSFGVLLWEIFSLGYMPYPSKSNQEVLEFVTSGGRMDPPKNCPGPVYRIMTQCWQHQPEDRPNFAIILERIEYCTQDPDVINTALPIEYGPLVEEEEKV
Sequence of CLK1 (P49759 whole entry): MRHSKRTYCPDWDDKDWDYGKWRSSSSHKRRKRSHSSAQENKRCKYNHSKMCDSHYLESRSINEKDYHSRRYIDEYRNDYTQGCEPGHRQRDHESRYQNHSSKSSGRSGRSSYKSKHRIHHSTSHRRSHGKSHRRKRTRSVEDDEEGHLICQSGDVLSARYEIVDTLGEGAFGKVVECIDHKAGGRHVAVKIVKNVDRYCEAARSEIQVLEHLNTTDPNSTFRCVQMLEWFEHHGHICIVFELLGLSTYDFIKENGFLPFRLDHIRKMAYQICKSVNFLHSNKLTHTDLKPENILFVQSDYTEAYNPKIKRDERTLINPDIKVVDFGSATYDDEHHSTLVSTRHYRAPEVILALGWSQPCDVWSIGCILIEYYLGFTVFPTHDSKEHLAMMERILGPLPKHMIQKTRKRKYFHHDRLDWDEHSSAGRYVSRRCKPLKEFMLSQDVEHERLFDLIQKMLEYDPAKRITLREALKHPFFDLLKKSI

## FRTX-02
[1]
  % of control unbound at 1 μM: 3.3
[2]
  % of control unbound at 1 μM: 1.8
[3]
  % of control unbound at 1 μM: 2.5
[4]
  IC50: 2.9 nM
[5]
  % of control unbound at 1 μM: 3.5
[6]
  % of control unbound at 1 μM: 1.1
[7]
  % of control unbound at 1 μM: 7.8
